# Test results: article PMC8185074, “Anchor extension: a structure-guided approach to design cyclic peptides targeting enzyme active sites” (Nature Communications, 2021)
# Peptide text beside a SMILES is read from it.
# What was measured:
# Format in all cases: biochemical
# HDAC6 = molecular target: T1, HDAC6 (Homo sapiens, UniProt Q9UBN7); assay: HDAC6 inhibition, full IC50 measurement (Reaction Biology; fluorogenic p53 peptide RHKK(Ac)AMC)
# T1 construct: purchased Reaction Biology Corporation (assay run by the CRO)
# T1 sequence (Q9UBN7 1-1215): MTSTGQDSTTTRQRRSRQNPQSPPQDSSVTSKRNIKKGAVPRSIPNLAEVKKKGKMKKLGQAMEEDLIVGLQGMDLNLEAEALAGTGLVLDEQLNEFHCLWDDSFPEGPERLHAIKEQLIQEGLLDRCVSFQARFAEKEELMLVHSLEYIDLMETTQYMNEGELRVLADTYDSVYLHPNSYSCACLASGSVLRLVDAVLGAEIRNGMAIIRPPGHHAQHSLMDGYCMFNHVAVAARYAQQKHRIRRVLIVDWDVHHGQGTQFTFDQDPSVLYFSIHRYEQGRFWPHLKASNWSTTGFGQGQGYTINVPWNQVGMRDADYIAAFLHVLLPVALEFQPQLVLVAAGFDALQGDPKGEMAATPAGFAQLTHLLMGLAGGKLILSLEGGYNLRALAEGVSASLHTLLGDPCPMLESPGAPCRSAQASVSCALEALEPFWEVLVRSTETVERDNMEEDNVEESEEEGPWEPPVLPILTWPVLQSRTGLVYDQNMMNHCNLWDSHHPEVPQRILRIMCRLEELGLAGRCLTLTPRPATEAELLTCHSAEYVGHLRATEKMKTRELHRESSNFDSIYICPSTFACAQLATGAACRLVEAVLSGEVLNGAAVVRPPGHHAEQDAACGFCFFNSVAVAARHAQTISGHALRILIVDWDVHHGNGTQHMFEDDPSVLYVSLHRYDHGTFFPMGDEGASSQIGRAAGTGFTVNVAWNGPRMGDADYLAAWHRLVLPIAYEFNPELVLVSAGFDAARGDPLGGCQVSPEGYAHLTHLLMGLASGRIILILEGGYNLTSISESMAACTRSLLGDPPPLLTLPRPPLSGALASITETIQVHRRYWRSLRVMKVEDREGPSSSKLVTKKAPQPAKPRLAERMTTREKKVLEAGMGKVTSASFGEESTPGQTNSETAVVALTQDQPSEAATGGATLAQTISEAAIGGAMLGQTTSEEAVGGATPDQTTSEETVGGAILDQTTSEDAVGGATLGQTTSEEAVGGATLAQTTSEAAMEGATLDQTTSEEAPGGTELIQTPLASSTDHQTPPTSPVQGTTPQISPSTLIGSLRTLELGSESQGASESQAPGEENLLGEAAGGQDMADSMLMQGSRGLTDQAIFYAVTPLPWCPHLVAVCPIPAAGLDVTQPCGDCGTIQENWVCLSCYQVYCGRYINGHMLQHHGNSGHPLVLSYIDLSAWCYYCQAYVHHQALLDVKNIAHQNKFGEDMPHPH
# How it was run: (§1)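 Test peptides were dispensed acoustically with enzyme in 50 mM Tris-HCl pH 8.0, 137 mM NaCl, 2.7 mM KCl, 1 mM MgCl2, 1 mg/ml BSA and 1% DMSO. After adding 50 μM RHKK(Ac)AMC, reactions ran 1 h at 30 °C, then developer was added.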
# HDAC3 = molecular target: T2, HDAC3 (Homo sapiens, UniProt O15379); assay: HDAC3 inhibition, full IC50 measurement (Reaction Biology; fluorogenic p53 peptide RHKK(Ac)AMC)
# T2 construct: purchased Reaction Biology Corporation (assay run by the CRO)
# How it was run: as §1
# HDAC8 = molecular target: T3, HDAC8 (Homo sapiens, UniProt Q9BY41); assay: HDAC8 inhibition, full IC50 measurement (Reaction Biology; fluorogenic p53 peptide RHKK(Ac)AMC); conditions: t1/t2 replicates
# T3 construct: purchased Reaction Biology Corporation (assay run by the CRO)
# T3 sequence (Q9BY41 1-377): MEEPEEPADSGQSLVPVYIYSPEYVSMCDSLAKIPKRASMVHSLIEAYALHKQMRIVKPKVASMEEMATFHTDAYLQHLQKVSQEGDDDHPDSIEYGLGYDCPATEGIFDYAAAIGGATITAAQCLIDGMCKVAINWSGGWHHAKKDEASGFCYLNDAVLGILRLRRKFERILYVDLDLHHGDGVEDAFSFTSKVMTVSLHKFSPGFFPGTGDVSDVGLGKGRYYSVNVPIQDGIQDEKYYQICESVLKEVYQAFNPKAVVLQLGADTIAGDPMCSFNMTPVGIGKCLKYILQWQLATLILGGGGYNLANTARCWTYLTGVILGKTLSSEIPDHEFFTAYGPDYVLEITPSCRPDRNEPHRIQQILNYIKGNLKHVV
# How it was run: as §1
# T2 sequence (O15379 whole entry): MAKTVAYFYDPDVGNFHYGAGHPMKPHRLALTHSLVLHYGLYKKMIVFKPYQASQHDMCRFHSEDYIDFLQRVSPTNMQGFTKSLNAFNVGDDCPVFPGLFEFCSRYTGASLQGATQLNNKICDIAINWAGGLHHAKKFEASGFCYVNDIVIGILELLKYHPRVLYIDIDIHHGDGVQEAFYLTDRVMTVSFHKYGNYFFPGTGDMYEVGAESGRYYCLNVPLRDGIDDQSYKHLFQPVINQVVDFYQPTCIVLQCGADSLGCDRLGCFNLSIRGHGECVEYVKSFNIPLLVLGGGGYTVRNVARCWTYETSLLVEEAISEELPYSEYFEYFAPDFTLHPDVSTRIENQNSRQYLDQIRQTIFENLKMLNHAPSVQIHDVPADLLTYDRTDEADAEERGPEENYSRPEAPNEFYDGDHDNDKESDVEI
# T2 sequence (Q9Y618 395-489 partner limits assumed): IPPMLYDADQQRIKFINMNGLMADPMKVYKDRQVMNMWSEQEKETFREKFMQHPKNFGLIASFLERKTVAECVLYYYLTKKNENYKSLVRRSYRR
compound,measurement,setting,value
"CSCC[C@H]1NC(=O)[C@@H](CO)NC(=O)[C@H](CC(N)=O)NC(=O)[C@H](CC(=O)O)NC(=O)[C@@H]([C@H](C)O)NC(=O)[C@H](Cc2c[nH]c3ccccc23)NC(=O)[C@H](CCCCCS)NC(=O)[C@H](CCCCN)NC(=O)[C@@H](CC(=O)O)NC1=O [des2.1.1, SHA-Trp-dThr-Asp-Asn-dSer-dMet-dAsp-Lys] (HELM PEPTIDE1{D.N.[dS].[dM].[dD].K.[O=C([C@H](CCCCCS)N[*:1])[*:2]].W.[dT]}$PEPTIDE1,PEPTIDE1,1:R1-9:R2$$$V2.0)",HDAC6 activity raw data (signal),"HDAC6; Conc. 1.00E-05 M, t1",-77
same,HDAC6 activity raw data (signal),"HDAC6; Conc. 1.00E-05 M, t2",-1621
same,HDAC6 activity raw data (signal),"HDAC6; Conc. 1.11E-06 M, t1",12750
same,HDAC6 activity raw data (signal),"HDAC6; Conc. 1.11E-06 M, t2",10889
same,HDAC6 activity raw data (signal),"HDAC6; Conc. 1.23E-07 M, t1",59972
same,HDAC6 activity raw data (signal),"HDAC6; Conc. 1.23E-07 M, t2",56137
same,HDAC6 activity raw data (signal),"HDAC6; Conc. 1.37E-08 M, t1",194975
same,HDAC6 activity raw data (signal),"HDAC6; Conc. 1.37E-08 M, t2",185826
same,HDAC6 activity raw data (signal),"HDAC6; Conc. 1.52E-09 M, t1",455139
same,HDAC6 activity raw data (signal),"HDAC6; Conc. 1.52E-09 M, t2",435218
same,HDAC6 activity raw data (signal),"HDAC6; Conc. 3.33E-06 M, t1",6654
same,HDAC6 activity raw data (signal),"HDAC6; Conc. 3.33E-06 M, t2",2213
same,HDAC6 activity raw data (signal),"HDAC6; Conc. 3.70E-07 M, t1",27729
same,HDAC6 activity raw data (signal),"HDAC6; Conc. 3.70E-07 M, t2",16335
same,HDAC6 activity raw data (signal),"HDAC6; Conc. 4.12E-08 M, t1",104749
same,HDAC6 activity raw data (signal),"HDAC6; Conc. 4.12E-08 M, t2",101798
same,HDAC6 activity raw data (signal),"HDAC6; Conc. 4.57E-09 M, t1",322592
same,HDAC6 activity raw data (signal),"HDAC6; Conc. 4.57E-09 M, t2",306483
same,HDAC6 activity raw data (signal),"HDAC6; Conc. 5.08E-10 M, t1",505663
same,HDAC6 activity raw data (signal),"HDAC6; Conc. 5.08E-10 M, t2",482059
same,HDAC3 activity raw data (signal),"HDAC3; Conc. 1.00E-05 M, t1",7144
same,HDAC3 activity raw data (signal),"HDAC3; Conc. 1.00E-05 M, t2",5841
same,HDAC3 activity raw data (signal),"HDAC3; Conc. 1.11E-06 M, t1",51390
same,HDAC3 activity raw data (signal),"HDAC3; Conc. 1.11E-06 M, t2",54678
same,HDAC3 activity raw data (signal),"HDAC3; Conc. 1.23E-07 M, t1",246556
same,HDAC3 activity raw data (signal),"HDAC3; Conc. 1.23E-07 M, t2",273031
same,HDAC3 activity raw data (signal),"HDAC3; Conc. 1.37E-08 M, t1",687389
same,HDAC3 activity raw data (signal),"HDAC3; Conc. 1.37E-08 M, t2",738917
same,HDAC3 activity raw data (signal),"HDAC3; Conc. 1.52E-09 M, t1",1292643
same,HDAC3 activity raw data (signal),"HDAC3; Conc. 1.52E-09 M, t2",1253696
same,HDAC3 activity raw data (signal),"HDAC3; Conc. 3.33E-06 M, t1",22832
same,HDAC3 activity raw data (signal),"HDAC3; Conc. 3.33E-06 M, t2",23560
same,HDAC3 activity raw data (signal),"HDAC3; Conc. 3.70E-07 M, t1",127387
same,HDAC3 activity raw data (signal),"HDAC3; Conc. 3.70E-07 M, t2",114572
same,HDAC3 activity raw data (signal),"HDAC3; Conc. 4.12E-08 M, t1",487885
same,HDAC3 activity raw data (signal),"HDAC3; Conc. 4.12E-08 M, t2",457810
same,HDAC3 activity raw data (signal),"HDAC3; Conc. 4.57E-09 M, t1",1034207
same,HDAC3 activity raw data (signal),"HDAC3; Conc. 4.57E-09 M, t2",1052923
same,HDAC3 activity raw data (signal),"HDAC3; Conc. 5.08E-10 M, t1",1393662
same,HDAC3 activity raw data (signal),"HDAC3; Conc. 5.08E-10 M, t2",1455609
same,HDAC8 activity raw data (signal),"HDAC8; peptide conc. 1.00E-05 M, listed as des2.1.1_t1",964380
same,HDAC8 activity raw data (signal),"HDAC8; peptide conc. 1.00E-05 M, listed as des2.1.1_t2",738285
same,HDAC8 activity raw data (signal),"HDAC8; peptide conc. 1.11E-06 M, listed as des2.1.1_t1",17568030
same,HDAC8 activity raw data (signal),"HDAC8; peptide conc. 1.11E-06 M, listed as des2.1.1_t2",18194235
same,HDAC8 activity raw data (signal),"HDAC8; peptide conc. 1.23E-07 M, listed as des2.1.1_t1",56084359
same,HDAC8 activity raw data (signal),"HDAC8; peptide conc. 1.23E-07 M, listed as des2.1.1_t2",53955732
same,HDAC8 activity raw data (signal),"HDAC8; peptide conc. 1.37E-08 M, listed as des2.1.1_t1",68600267
same,HDAC8 activity raw data (signal),"HDAC8; peptide conc. 1.37E-08 M, listed as des2.1.1_t2",68709597
same,HDAC8 activity raw data (signal),"HDAC8; peptide conc. 1.52E-09 M, listed as des2.1.1_t1",73629892
same,HDAC8 activity raw data (signal),"HDAC8; peptide conc. 1.52E-09 M, listed as des2.1.1_t2",68940487
same,HDAC8 activity raw data (signal),"HDAC8; peptide conc. 3.33E-06 M, listed as des2.1.1_t1",6524465
same,HDAC8 activity raw data (signal),"HDAC8; peptide conc. 3.33E-06 M, listed as des2.1.1_t2",5933628
same,HDAC8 activity raw data (signal),"HDAC8; peptide conc. 3.70E-07 M, listed as des2.1.1_t1",36548840
same,HDAC8 activity raw data (signal),"HDAC8; peptide conc. 3.70E-07 M, listed as des2.1.1_t2",38514186
same,HDAC8 activity raw data (signal),"HDAC8; peptide conc. 4.12E-08 M, listed as des2.1.1_t1",62692187
same,HDAC8 activity raw data (signal),"HDAC8; peptide conc. 4.12E-08 M, listed as des2.1.1_t2",60959948
same,HDAC8 activity raw data (signal),"HDAC8; peptide conc. 4.57E-09 M, listed as des2.1.1_t1",71596500
same,HDAC8 activity raw data (signal),"HDAC8; peptide conc. 4.57E-09 M, listed as des2.1.1_t2",73045422
same,HDAC8 activity raw data (signal),"HDAC8; peptide conc. 5.08E-10 M, listed as des2.1.1_t1",76849547
same,HDAC8 activity raw data (signal),"HDAC8; peptide conc. 5.08E-10 M, listed as des2.1.1_t2",76232042
